From US20050250726A1, “Immunostimulatory nucleic acid for treatment of non-allergic inflammatory diseases” (University of Iowa Research Foundation, priority 2001, published 2005)
Strand notation (5' to 3'): a small letter for the sugar, then the base; units joined by * are phosphorothioate-linked, units joined directly phosphodiester-linked; [ ] holds rarer units or linkages, { } end groups; capitals alone tell only the bases. d = 2'-deoxy (DNA)

Assays:
YAC-1 target cells = test: NK cytotoxicity assay, 4-h 51Cr-release against YAC-1 target cells; assay type: cell-based, mouse; conditions: for NK activity, Mouse Spleen Cells (LU/10^6): B cell-depleted C57BL/6 spleen cells, 18 h, IL-2 100 U/mL, ODN 1585 5 μg/mL, SC-58236 0.25 μg/mL, PGE2 0.1 μg/mL, 1 LU = 30% 51Cr release; for effect on NK lytic activity induced by CpG DNA: B cell-depleted murine spleen cells stimulated with ODN 1585
Description: Cytotoxicity assay. Spleen cells from C57BL/6 mice were depleted of B cells using paramagnetic beads coated with goat anti-mouse Ig as previously described. Ballas Z K et al. (1990) J Immunol 145:1039-45; Ballas Z K et al. (1993) J Immunol 150:17-30. […] […] Cultures were harvested at 18 h and the cells were used as effectors in a standard 4-h ^51Cr-release assay against YAC-1 target cells labeled with Na^51CrO4 (Amersham Life Science, Arlington Heights, Ill.) as described previously. Ballas Z K et al. (1990) J Immunol 145:1039-45; Ballas Z K et al. (1993) J Immunol 150:17-30; Ballas Z K et al. (1990) J Allergy Clin Immunol 85:453-39. One lytic unit (LU) was defined as the number of the cells needed to exert 30% specific lysis.
It has previously been reported that certain CpG DNA sequences can elicit strong lytic activity in NK cells (Ballas Z K et al. (1996) J Immunol 157:1840-45), whereas exogenous PGE2 is known to inhibit the activity of NK cell killing (Kanar M C et al. (1988) J Clin Immunol 8:69-79; Young M R et al. (1986) J Natl Cancer Inst 77:425-29). B cell-depleted murine spleen cells were stimulated with the stimulatory ODN 1585 in the presence or absence of a COX inhibitor.

[1] = tested on: BALB/c mouse spleen cells; test: IFN-γ secretion from CpG DNA-stimulated spleen cells (ELISA); assay type: cell-based; conditions: for IFN-γ: BALB/c spleen cells preincubated 30 min with SC-58236 0.125 μM, PGE2 0.1 μM, 2B5 or control antibody 6.7 μg/mL, then CpG ODN 1826 0.3 μg/mL for 24 h, supernatant ELISA
Description: Cell culture conditions. RAW 264.7 cells and murine spleen cells were cultured in RPMI 1640 supplemented with 10% FCS, 2 mM L-glutamine, 0.05 mM 2-mercaptoethanol, penicillin (100 U/ml) and streptomycin (100 U/ml) in 12-well tissue culture plates (Costar, Corning, N.Y.). Cells were incubated in media alone or media supplemented with ODN. Supernatants from triplicate cultures were harvested and stored at −70° C. before analysis for PG or cytokine concentration. Cells were subsequently harvested for either RNA or protein isolation. In some cultures, ODN-stimulated spleen cells were incubated in the presence of PGE2 (0.1 μM), piroxicam (16 μM), SC-58236 (0.125 μM), anti-PGE2 antibody 2B5 (6.7 μg/ml), or isotype antibody MOPC21 (6.7 μg/ml). For quantitative analysis of macrophage PG production, RAW 264.4 cells were cultured at 1×10^5 cells/ml in media or media with ODN (3 μg/ml). After 24 h of culture the supernatant was removed and cells were incubated in PBS supplemented with arachidonic acid (10 μM).
Cytokine quantification. IFN-γ detection was performed using a cytokine ELISA kit from PharMingen (San Diego, Calif.). Immulon-1B microtiter plates were obtained from Dynatech (Chantilly, Calif.). After incubation with peroxidase substrate (tetramethylbenzidine) the plates were read at 650 nm on a microplate reader (Cambridge Technology, Watertown, Mass.).
COX inhibitors enhance IFN-γ secretion induced by CpG DNA. CpG DNA is known to elicit strong Th1-like immune responses both in vitro and in vivo. Klinman D M et al. (1996) Proc Natl Acad Sci USA 93:2879-83. In contrast, PGE2, which is induced by CpG DNA, can inhibit Th1 responses. Betz M et al. (1991) J Immunol 146:108-13. Murine spleen cells were stimulated with CpG DNA in the presence of piroxicam, a non-selective COX inhibitor, or SC-58236, a selective inhibitor of COX-2, and quantified IFN-γ production. […] Neither COX inhibitor alone stimulated IFN-γ secretion.
Inhibition of PGE2 synthesis plays an important role in enhancing IFN-γ secretion. The blockade of the COX enzyme will inhibit synthesis of multiple PG (e.g., PGE2, PGD2 and dPGJ2), all of which potentially can inhibit Th1 immune responses. To assess the role of PGE2 in the modulation of IFN-γ secretion elicited by CpG ODN, a neutralizing antibody (2B5) specific for PGE2 was added into CpG DNA-stimulated spleen cell-cultures. […] The enhancement was similar in magnitude to that observed when COX inhibitors were added to the cultures (Table 3).

COX-2 mRNA = test: RNase protection assay for COX-2 mRNA in RAW 264.7 macrophages; assay type: cell-based, murine; conditions: ODN 3 μg/ml; for increase in COX-2 mRNA: 0-24 h
Description: RNase protection assay. A murine COX-2 cDNA fragment (nucleotides 205-505; GenBank accession no. M88242) was synthesized by RT-PCR using mouse brain RNA as a template and cloned into pGEM-4. Fragments of the RPL32-4A gene were also cloned into pGEM-4. Dudov K P et al. (1984) Cell 37:457-68. L32 served as an internal loading control. RNase protection assay (RPA) for the detection of COX-2 was performed as previously described. Stadler A et al. (1998) In: Neurodegeneration Methods and Protocols, Harry J and Tilson H A, eds., Humana Press, Totowa, N.J., p. 53. Briefly, for the synthesis of a ^32P-radiolabeled anti-sense RNA probe, equimolar mixtures of the linearized COX-2 and L32 templates were used. Hybridization reactions were performed overnight at 56° C. Following RNase digestion, the RNA duplexes were isolated by electrophoresis in a standard 7.5% acrylamide/12 M urea/0.5% TBE sequencing gel. Dried gels were placed on BMR filmhand were exposed at −70° C.
Films and photographs of RPA or Western blots were scanned in at 6000 DPI using an Epson Expression 1600 scanner. Densitometric analysis was performed using Vtrace (developed at the University of Iowa Image Analysis Facility) operating on a SGI O2 Workstation. Average and integrated OD measurements were made on user-selected regions. A Kodak photographic step tablet was used to calibrate optical density.
Immunostimulatory ODN induce COX-2 mRNA. RAW 264.7 macrophages were incubated with media or ODN (3 μg/ml) for varying time periods (0, 2, 4, 6 and 24 h) and RNA isolated for COX-2 expression using RPA.

COX-2 protein = test: Western blotting of COX-2 protein in RAW 264.7 cells; assay type: cell-based, murine
Description: Western blotting. Protein was isolated from cultured cells by resuspending in lysis buffer [50 mM Tris (hydroxymethyl) aminomethane, pH 7.5, 150 mM NaCl, 100 μg/ml PMSF, 1 μg/ml aprotinin, 1 μg/ml leupeptin, 1 mM diethyldithiocarbamic acid, 1% NP-40 and 1% sodium deoxycholate]. Cells were lysed by sonication (20 s, 4° C.). Debris was eliminated by centrifugation (15 min, 1000 g). Protein concentration was measured using a commercial reagent based on BCA staining (Pierce, Rockford, Ill.), using BSA as an internal standard. Equal amounts of cellular protein were loaded onto a 10% polyacrylamide gel and separated by electrophoresis (200 V for 45 min). Proteins were then transferred to nitrocellulose (100 V for 1 h) and the membrane was blocked with 5% non-fat dry milk. The nitrocellulose was then incubated with a rabbit polyclonal primary antibody (anti-COX-2, 1:1000, Cayman; anti-COX-1, 1:1000, Santa Cruz) overnight at 4° C. Antibody labeling was detected using enhanced chemiluminescence (ECL; Amersham) as per the manufacturer's instructions. Specificity of the anti-cyclooxygenase antibody was confirmed with the use of ram seminal vesicle PGHS-1 (COX-1, Oxford Biomedical Research, Oxford, Mich.) and sheep placenta PGHS-2 (COX-2, Cayman).
Films and photographs of RPA or Western blots were scanned in at 6000 DPI using an Epson Expression 1600 scanner. […]

BALB/c mice = test: Serum IFN-γ in vivo after COX inhibitor and ODN 1826 injection; set-up: species or system mouse; conditions: SC-58236 20 mg/kg i.p. 1 h before 30 μg ODN 1826, serum 5 h post ODN, FIG. 3
Description: In vivo experiments. BALB/c mice were injected i.p. with 0.2 ml of diluent or SC-58236 (20 mg/kg). One hour later, mice were injected with 30 μg of ODN 1826 or PBS. Five hours later, the mice were anaesthetized with Avertin (Aldrich, Milwaukee, Wis.) and blood was obtained from the retro-orbital plexus. The blood was allowed to clot on ice for 1 h and centrifuged at 10,000 r.p.m. for 10 min. The serum was used for IFN-γ determination by ELISA (as described above).
COX inhibitors augment IFN-γ production in vivo. To determine whether COX inhibitors could also enhance the immune stimulatory effects of CpG-DNA in vivo, mice were treated with COX inhibitors (piroxicam or SC-58236) and subsequently injected with stimulatory ODN 1826. Serum IFN-γ levels were quantified 5 h post ODN injection.

For `CCCCC[C@H](O)/C=C/[C@H]1[C@H](O)CC(=O)[C@@H]1C/C=C\CCCC(=O)O` [PGE2, prostaglandin E2], the “NK activity, Mouse Spleen Cells (LU/10^6)” value (shortened to “NK activity”) (YAC-1 target cells) was 0.0 LU/10^6, the “effect on NK lytic activity induced by CpG DNA” value (YAC-1 target cells) was “abolished the lytic activity” and the “IFN-γ” value [1] was 0 ± 4 pg/mL.
With “ggGGTCAACGTTGAgggggG (dG*dG*dGdGdTdCdAdAdCdGdTdTdGdAdG*dG*dG*dG*dG*dG) [ODN 1585, immunostimulatory CpG ODN]” the “NK activity” value (YAC-1 target cells) was 7.3 LU/10^6.
For ODN 1826, the “COX-2 mRNA levels over the 24-h time period” value (COX-2 mRNA) was “remained elevated”, the “time to induction of COX-2 mRNA expression” value (COX-2 mRNA) was ≤ 2 h and the “increase in COX-2 mRNA” value (COX-2 mRNA) was “effectively increased COX-2 mRNA”. For the same compound, the “COX-2 mRNA, 6 h level fold greater than 0 h” value (COX-2 mRNA; 6 h) was 21 fold, the “IFN-γ” value [1] was 1960 ± 247 pg/mL and the “COX-2 protein induction” value (COX-2 protein) was “marked induction”.
With “ODN 1982: non-stimulatory control ODN (dT*dC*dC*dA*dG*dG*dA*dC*dT*dT*dC*dT*dC*dT*dC*dA*dG*dG*dT*dT)” the “increase in COX-2 mRNA” value (COX-2 mRNA) was “no significant increase” and the “COX-2 protein induction” value (COX-2 protein) was “no induction”.
For `NS(=O)(=O)c1ccc(-n2nc(C(F)(F)F)cc2-c2ccc(Cl)cc2)cc1` [SC-58236], the “NK activity” value (YAC-1 target cells) was 0.0 LU/10^6, the “effect on NK lytic activity induced by CpG DNA” value (YAC-1 target cells) was “enhanced the NK activity” and the “IFN-γ” value [1] was 0 ± 2 pg/mL. The “enhancement of IFN-γ secretion from CpG DNA-stimulated spleen cells” value ([1]; inhibitor added to CpG DNA-stimulated murine spleen cells) was 2 fold and the “increase in serum IFN-γ above mice injected with ODN 1826 alone” value (BALB/c mice) was 4.6 fold.
